{"source": "patent US8802597B2", "about": "“Herbicidal pyrimidines” (E I du Pont de Nemours and Company, priority 2003, dated 2014)", "experiment_in_all_cases": "Test C pre/postemergence", "type_in_all_cases": "in vivo", "key": {"[1]": {"tested_on": "bermudagrass (Cynodon dactylon)", "settings": "Postemergence; for Bermudagrass plant response rating: scale 0 to 100 (0 no effect, 100 complete control); for Plant response rating, Bermudagrass: scale 0 to 100", "summary_of_the_method": "(§1)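 Rating scale 0–100: 0 means no effect, 100 complete control; taken visually 12 to 14 days post-treatment versus controls. Pre- and postemergence greenhouse applications, postemergence at 1- to 4-leaf stage, non-phytotoxic solvent with surfactant as carrier.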"}, "[2]": {"tested_on": "cocklebur (Xanthium strumarium)", "settings": "Postemergence; for Cocklebur plant response rating: scale 0 to 100 (0 no effect, 100 complete control); for Plant response rating, Cocklebur: scale 0 to 100", "summary_of_the_method": "as §1"}, "[3]": {"tested_on": "common ragweed (Ambrosia elatior)", "settings": "Postemergence; for Ragweed plant response rating: scale 0 to 100 (0 no effect, 100 complete control); for Plant response rating, Ragweed: scale 0 to 100", "summary_of_the_method": "as §1"}, "[4]": {"tested_on": "goosegrass (Eleusine indica)", "settings": "Postemergence; for Goosegrass plant response rating: scale 0 to 100 (0 no effect, 100 complete control); for Plant response rating, Goosegrass: scale 0 to 100", "summary_of_the_method": "as §1"}, "[5]": {"tested_on": "johnsongrass (Sorghum halepense)", "settings": "Postemergence; for Johnsongrass plant response rating: scale 0 to 100 (0 no effect, 100 complete control); for Plant response rating, Johnsongrass: scale 0 to 100", "summary_of_the_method": "as §1"}, "kochia (Kochia scoparia)": {"tested_on": "kochia (Kochia scoparia)", "settings": "Postemergence; for Kochia plant response rating: scale 0 to 100 (0 no effect, 100 complete control); for Plant response rating, Kochia: scale 0 to 100", "summary_of_the_method": "as §1"}, "[6]": {"tested_on": "lambsquarters (Chenopodium album)", "settings": "Postemergence; for Lambsquarters plant response rating: scale 0 to 100 (0 no effect, 100 complete control); for Plant response rating, Lambsquarters: scale 0 to 100", "summary_of_the_method": "as §1"}, "[7]": {"tested_on": "pigweed (Amaranthus retroflexus)", "settings": "Postemergence; for Pigweed plant response rating: scale 0 to 100 (0 no effect, 100 complete control); for Plant response rating, Pigweed: scale 0 to 100", "summary_of_the_method": "as §1"}, "soybean (Glycine max)": {"tested_on": "soybean (Glycine max)", "settings": "Postemergence; for Soybean plant response rating: scale 0 to 100 (0 no effect, 100 complete control); for Plant response rating, Soybean: scale 0 to 100", "summary_of_the_method": "as §1"}, "[8]": {"tested_on": "velvetleaf (Abutilon theophrasti)", "settings": "Postemergence; for Velvetleaf plant response rating: scale 0 to 100 (0 no effect, 100 complete control); for Plant response rating, Velvetleaf: scale 0 to 100", "summary_of_the_method": "as §1"}}, "data": [{"smiles": "CC(=O)NN=Cc1nc(C2CC2)nc(N)c1Br", "note": "[Compound 51]", "values": [{"measurement": "Bermudagrass plant response rating", "setting": "[1]; 62 g ai/ha", "value": 0}, {"measurement": "Bermudagrass plant response rating", "setting": "[1]; 125 g ai/ha", "value": 0}, {"measurement": "Plant response rating, Bermudagrass", "setting": "[1]; 250 g ai/ha", "value": 0}, {"measurement": "Plant response rating, Bermudagrass", "setting": "[1]; 500 g ai/ha", "value": 0}, {"measurement": "Cocklebur plant response rating", "setting": "[2]; 62 g ai/ha", "value": 65}, {"measurement": "Cocklebur plant response rating", "setting": "[2]; 125 g ai/ha", "value": 65}, {"measurement": "Plant response rating, Cocklebur", "setting": "[2]; 250 g ai/ha", "value": 70}, {"measurement": "Plant response rating, Cocklebur", "setting": "[2]; 500 g ai/ha", "value": 85}, {"measurement": "Ragweed plant response rating", "setting": "[3]; 62 g ai/ha", "value": 65}, {"measurement": "Ragweed plant response rating", "setting": "[3]; 125 g ai/ha", "value": 80}, {"measurement": "Plant response rating, Ragweed", "setting": "[3]; 250 g ai/ha", "value": 80}, {"measurement": "Plant response rating, Ragweed", "setting": "[3]; 500 g ai/ha", "value": 85}, {"measurement": "Goosegrass plant response rating", "setting": "[4]; 62 g ai/ha", "value": 0}, {"measurement": "Goosegrass plant response rating", "setting": "[4]; 125 g ai/ha", "value": 0}, {"measurement": "Plant response rating, Goosegrass", "setting": "[4]; 250 g ai/ha", "value": 0}, {"measurement": "Plant response rating, Goosegrass", "setting": "[4]; 500 g ai/ha", "value": 0}, {"measurement": "Johnsongrass plant response rating", "setting": "[5]; 62 g ai/ha", "value": 0}, {"measurement": "Plant response rating, Johnsongrass", "setting": "[5]; 250 g ai/ha", "value": 0}, {"measurement": "Plant response rating, Johnsongrass", "setting": "[5]; 500 g ai/ha", "value": 0}, {"measurement": "Kochia plant response rating", "setting": "kochia (Kochia scoparia); 62 g ai/ha", "value": 15}, {"measurement": "Kochia plant response rating", "setting": "kochia (Kochia scoparia); 125 g ai/ha", "value": 60}, {"measurement": "Plant response rating, Kochia", "setting": "kochia (Kochia scoparia); 250 g ai/ha", "value": 85}, {"measurement": "Plant response rating, Kochia", "setting": "kochia (Kochia scoparia); 500 g ai/ha", "value": 95}, {"measurement": "Lambsquarters plant response rating", "setting": "[6]; 62 g ai/ha", "value": 60}, {"measurement": "Lambsquarters plant response rating", "setting": "[6]; 125 g ai/ha", "value": 75}, {"measurement": "Plant response rating, Lambsquarters", "setting": "[6]; 250 g ai/ha", "value": 85}, {"measurement": "Plant response rating, Lambsquarters", "setting": "[6]; 500 g ai/ha", "value": 90}, {"measurement": "Pigweed plant response rating", "setting": "[7]; 62 g ai/ha", "value": 65}, {"measurement": "Pigweed plant response rating", "setting": "[7]; 125 g ai/ha", "value": 70}, {"measurement": "Plant response rating, Pigweed", "setting": "[7]; 250 g ai/ha", "value": 80}, {"measurement": "Plant response rating, Pigweed", "setting": "[7]; 500 g ai/ha", "value": 85}, {"measurement": "Soybean plant response rating", "setting": "soybean (Glycine max); 62 g ai/ha", "value": 75}, {"measurement": "Soybean plant response rating", "setting": "soybean (Glycine max); 125 g ai/ha", "value": 95}, {"measurement": "Plant response rating, Soybean", "setting": "soybean (Glycine max); 250 g ai/ha", "value": 95}, {"measurement": "Plant response rating, Soybean", "setting": "soybean (Glycine max); 500 g ai/ha", "value": 95}, {"measurement": "Velvetleaf plant response rating", "setting": "[8]; 62 g ai/ha", "value": 0}, {"measurement": "Velvetleaf plant response rating", "setting": "[8]; 125 g ai/ha", "value": 20}, {"measurement": "Plant response rating, Velvetleaf", "setting": "[8]; 250 g ai/ha", "value": 60}, {"measurement": "Plant response rating, Velvetleaf", "setting": "[8]; 500 g ai/ha", "value": 65}]}, {"smiles": "COC(=O)c1nc(-c2ccc(Cl)cc2)nc(N)c1Br", "note": "[Compound 83]", "values": [{"measurement": "Plant response rating (scale of 0 to 100), Bermudagrass", "setting": "[1]; 16 g ai/ha", "value": 0}, {"measurement": "Plant response rating (scale of 0 to 100), Bermudagrass", "setting": "[1]; 31 g ai/ha", "value": 5}, {"measurement": "Bermudagrass plant response rating", "setting": "[1]; 62 g ai/ha", "value": 20}, {"measurement": "Bermudagrass plant response rating", "setting": "[1]; 125 g ai/ha", "value": 55}, {"measurement": "Plant response rating (scale of 0 to 100), Cocklebur", "setting": "[2]; 16 g ai/ha", "value": 60}, {"measurement": "Plant response rating (scale of 0 to 100), Cocklebur", "setting": "[2]; 31 g ai/ha", "value": 70}, {"measurement": "Plant response rating (scale of 0 to 100), Cocklebur", "setting": "[2]; 62 g ai/ha", "value": 70}, {"measurement": "Cocklebur plant response rating", "setting": "[2]; 125 g ai/ha", "value": 100}, {"measurement": "Plant response rating (scale of 0 to 100), Ragweed", "setting": "[3]; 16 g ai/ha", "value": 65}, {"measurement": "Plant response rating (scale of 0 to 100), Ragweed", "setting": "[3]; 31 g ai/ha", "value": 70}, {"measurement": "Plant response rating (scale of 0 to 100), Ragweed", "setting": "[3]; 62 g ai/ha", "value": 75}, {"measurement": "Ragweed plant response rating", "setting": "[3]; 125 g ai/ha", "value": 95}, {"measurement": "Plant response rating (scale of 0 to 100), Goosegrass", "setting": "[4]; 16 g ai/ha", "value": 10}, {"measurement": "Plant response rating (scale of 0 to 100), Goosegrass", "setting": "[4]; 31 g ai/ha", "value": 10}, {"measurement": "Plant response rating (scale of 0 to 100), Goosegrass", "setting": "[4]; 62 g ai/ha", "value": 30}, {"measurement": "Goosegrass plant response rating", "setting": "[4]; 125 g ai/ha", "value": 45}, {"measurement": "Plant response rating (scale of 0 to 100), Johnsongrass", "setting": "[5]; 16 g ai/ha", "value": 10}, {"measurement": "Plant response rating (scale of 0 to 100), Johnsongrass", "setting": "[5]; 31 g ai/ha", "value": 55}, {"measurement": "Plant response rating (scale of 0 to 100), Johnsongrass", "setting": "[5]; 62 g ai/ha", "value": 55}, {"measurement": "Johnsongrass plant response rating", "setting": "[5]; 125 g ai/ha", "value": 70}, {"measurement": "Plant response rating (scale of 0 to 100), Kochia", "setting": "kochia (Kochia scoparia); 16 g ai/ha", "value": 65}, {"measurement": "Plant response rating (scale of 0 to 100), Kochia", "setting": "kochia (Kochia scoparia); 31 g ai/ha", "value": 75}, {"measurement": "Plant response rating (scale of 0 to 100), Kochia", "setting": "kochia (Kochia scoparia); 62 g ai/ha", "value": 75}, {"measurement": "Kochia plant response rating", "setting": "kochia (Kochia scoparia); 125 g ai/ha", "value": 90}, {"measurement": "Plant response rating (scale of 0 to 100), Lambsquarters", "setting": "[6]; 16 g ai/ha", "value": 90}, {"measurement": "Plant response rating (scale of 0 to 100), Lambsquarters", "setting": "[6]; 31 g ai/ha", "value": 95}, {"measurement": "Plant response rating (scale of 0 to 100), Lambsquarters", "setting": "[6]; 62 g ai/ha", "value": 95}, {"measurement": "Lambsquarters plant response rating", "setting": "[6]; 125 g ai/ha", "value": 100}, {"measurement": "Plant response rating (scale of 0 to 100), Pigweed", "setting": "[7]; 16 g ai/ha", "value": 95}, {"measurement": "Plant response rating (scale of 0 to 100), Pigweed", "setting": "[7]; 31 g ai/ha", "value": 95}, {"measurement": "Plant response rating (scale of 0 to 100), Pigweed", "setting": "[7]; 62 g ai/ha", "value": 100}, {"measurement": "Pigweed plant response rating", "setting": "[7]; 125 g ai/ha", "value": 100}, {"measurement": "Plant response rating (scale of 0 to 100), Soybean", "setting": "soybean (Glycine max); 16 g ai/ha", "value": 85}, {"measurement": "Plant response rating (scale of 0 to 100), Soybean", "setting": "soybean (Glycine max); 31 g ai/ha", "value": 90}, {"measurement": "Plant response rating (scale of 0 to 100), Soybean", "setting": "soybean (Glycine max); 62 g ai/ha", "value": 100}, {"measurement": "Soybean plant response rating", "setting": "soybean (Glycine max); 125 g ai/ha", "value": 100}, {"measurement": "Plant response rating (scale of 0 to 100), Velvetleaf", "setting": "[8]; 16 g ai/ha", "value": 70}, {"measurement": "Plant response rating (scale of 0 to 100), Velvetleaf", "setting": "[8]; 31 g ai/ha", "value": 85}, {"measurement": "Plant response rating (scale of 0 to 100), Velvetleaf", "setting": "[8]; 62 g ai/ha", "value": 85}, {"measurement": "Velvetleaf plant response rating", "setting": "[8]; 125 g ai/ha", "value": 100}]}]}
